One series has as its target T1, HO-2 (rat brain) (Rattus norvegicus, UniProt P23711).
T1 construct: brain microsomes were used as a source of HO-2; from tissue; host or cells: brain microsomal fraction of adult male Sprague-Dawley rats
T1 sequence (P23711 1-315): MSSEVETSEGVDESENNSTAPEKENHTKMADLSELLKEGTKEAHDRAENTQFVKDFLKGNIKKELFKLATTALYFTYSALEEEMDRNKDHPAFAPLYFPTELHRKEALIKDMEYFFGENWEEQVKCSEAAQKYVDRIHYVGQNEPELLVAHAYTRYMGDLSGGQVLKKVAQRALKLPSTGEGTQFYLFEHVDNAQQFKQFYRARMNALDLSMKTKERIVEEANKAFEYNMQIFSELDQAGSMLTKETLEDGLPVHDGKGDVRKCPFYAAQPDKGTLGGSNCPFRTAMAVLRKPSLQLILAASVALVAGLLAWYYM
Nature of the series: HO enzymatic activity, rat brain microsomal fraction (CO formation from methemalbumin). It counts as biochemical. Particulars: IC50 HO-2 (rat brain)/μM), CO formation from methemalbumin, mean ± SD of replicate experiments.

A further series concerns the target T2, HO-1 (rat spleen) (Rattus norvegicus, UniProt P06762).
T2 construct: Spleen microsomes were used as a source of HO-1; from tissue; host or cells: spleen microsomal fraction of adult male Sprague-Dawley rats
T2 sequence (P06762 1-289): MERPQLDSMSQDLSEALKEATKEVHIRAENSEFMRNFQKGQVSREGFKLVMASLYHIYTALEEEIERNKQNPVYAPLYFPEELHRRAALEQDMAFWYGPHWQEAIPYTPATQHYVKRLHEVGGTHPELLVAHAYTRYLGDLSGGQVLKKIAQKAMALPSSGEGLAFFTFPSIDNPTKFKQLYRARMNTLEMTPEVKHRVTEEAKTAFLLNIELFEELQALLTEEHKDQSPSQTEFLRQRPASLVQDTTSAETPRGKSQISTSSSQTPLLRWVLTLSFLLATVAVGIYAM
The experiment in a line: HO enzymatic activity, rat spleen microsomal fraction (CO formation from methemalbumin). It counts as biochemical. Conditions: CO formation from methemalbumin, mean ± SD of replicate experiments.

In series [1] the test system is HCT-116 colorectal carcinoma. Nature of the series: Colorectal carcinoma model HCT-116 in SCID mice, tumor growth delay. It counts as in vivo, Mouse (Mus musculus); male SCID. Conditions: dosage of 60 mg/kg. From the text: (§1) Control groups received the vehicle alone.
The test system of series [2] is CD31-positive vessels in SKMEL-V+ tumors. Nature of the series: CD31 immunohistochemistry / microvessel density of SKMEL-V+ tumors. It counts as in vivo, Mouse (Mus musculus), male SCID. Particulars: QC-56 particularly at 60 mg/kg. How it is done:
Cell cultures were maintained in 5% CO2/95% air at 37° C. SKMEL-V (human melanoma cells). SKMEL-V cells were derived from SKMEL-24 cells (ATCC) by overexpression of mouse VEGF. […] Tumors were either snap frozen in liquid nitrogen or fixed in 10% buffered formalin and embedded in paraffin. […] BD PharMingen, San Diego, Calif.). […] Sections were rehydrated in PBS and then blocked with 5% normal goat serum for 1 h. The sections were then incubated overnight at 4° C. with CD31 antibody diluted 1:25 in 3% BSA-PBS. […] Paraffin-embedded material was used for Harris' hematoxylin. Microvessel density was quantified using a method described by Weidner et al ([…], and Folkman […]. Med, 1991; 324:1-8). Briefly, randomly vascularized areas were selected (hot spots) under 40× field and 100× fields. Then a 400× field was used to count microvessels in each of these areas. Single endothelial cells or clusters of endothelial cells with or without lumen were considered to be individual vessels. […] All slides were examined blindly with no prior knowledge of the treatment status.

For a further series, the system named is cultured rat astroglia. Conditions: cited from earlier work; for mitochondrial iron accumulation in astroglia transfected with human ho-1 gene: transient transfection.
The format of series [3] is in vivo. Particulars: QC-56 60 mg/kg ip, 4 cycles; chemotherapy drugs ip.
From the text: as §1

Series [4] relates to vascular smooth muscle cells (VSMC). Particulars: exposure of VSMC; cited from earlier work.
The subject of series [5] is B16-BL6 cells (mouse melanoma). Nature of the series: Metastatic B16-BL6 melanoma model, lung surface metastases. It counts as in vivo. Conditions: vehicle control: 101. Here is the method:
B16-BL6 cells (mouse melanoma). B16-BL6 metastatic variant was derived from B16-F10. This cell variant was obtained from Dr. Linda D. Williams, Dept. of Cancer Biology, MD Anderson Cancer Center, Texas, USA. […] Cells were maintained at 37° C. in a humidified atmosphere (5% CO2, 95% air).
as §1

Where [6] appears, read: read-out: IC50 HO-1 (rat spleen/μM).

Where two headings read alike, the source gives them in different places.

What is called melting point is the temperature, or range, at which the solid turns liquid. For `Cl.OC(CCc1ccc(I)cc1)Cn1ccnc1` (racemic) [QC-74, (±)-1-(1H-Imidazol-1-yl)-4-(4-iodophenyl)-2-butanol hydrochloride], the melting point was in the range of 196 to 197 °C. The molecule also displayed an IC50 against HO-2 (rat brain) of 2 ± 1 µM.

`Cl.OC(CCc1ccccc1)Cn1ccnc1` (racemic) [QC-76, (±)-1-(1H-imidazol-1-yl)-4-phenyl-2-butanol hydrochloride] yielded a melting point of 56 to 57 °C. In addition, at HO-1 (rat spleen) (setting [6]), the IC50 stood at 6 ± 1 µM. The molecule also returned an IC50 on HO-2 (rat brain) of 16 ± 8 µM.

`Cl.OC(CCc1ccc(Br)cc1)Cn1ccnc1` (racemic) [QC-79, (±)-4-(4-Bromophenyl)-1-(1H-imidazol-1-yl)-2-butanol hydrochloride] returned a melting point of 174 to 175 °C. The IC50 on HO-1 (rat spleen) (setting [6]) worked out at 0.1 ± 0.1 µM. For the same molecule, the IC50 against HO-2 (rat brain) is 2.6 ± 0.5 µM.

Molecule `COc1ccc(OCC2CO[C@@](CCc3ccc(Cl)cc3)(Cn3ccnc3)O2)cc1.Cl` (stereo in doubt) [QC-132, (2R,4S)-1-[2-[2-(4-Chlorophenyl)ethyl]-4-(4-methoxyphenoxymethyl)-[1,3]dioxolan-2-ylmethyl]-1H-imidazole hydrochloride] came in with a melting point of 128 to 129 °C.

For the molecule `O=c1[nH]cc(F)c(=O)[nH]1` [5-FU, Fluorouracil, reference compound], the mortality result in series [1] is listed as “induced mortality”.

Regarding `CN(C)/N=N/c1[nH]cnc1C(N)=O` [Dacarbazine, reference compound], the “vessel count / tumor vascularization (CD31)” value in series [2] was “minor effect”.

As to `Cl.Ic1ccc(CCC2(Cn3ccnc3)OCCO2)cc1` [QC-78, 1-((2-(2-(4-Iodophenyl)ethyl)-1,3-dioxolan-2-yl)methyl)-1H-imidazole hydrochloride], the melting point is 241 to 243 °C (dec.). At HO-1 (rat spleen) (IC50 HO-1 (rat spleen/μM)), this molecule had an IC50 of 4 ± 1 µM.

As for `Cl.O=C(Cn1ccnc1)C12CC3CC(CC(C3)C1)C2` [QC-82, 1-(adamantan-1-yl)-2-imidazol-1-yl-ethanone hydrochloride], the melting point lay within 261 to 262 °C. Further, the IC50 at HO-1 (rat spleen) (setting [6]) was 3 ± 1 µM. Also, the IC50 against HO-2 (rat brain) was more than 100 µM.

The molecule `Cl.Clc1ccc(CCCCn2ccnc2)cc1` [QC-105, 1-[4-(4-chlorophenyl)butyl]-1H-imidazole hydrochloride] yielded a melting point of 121 to 122 °C. For the same molecule, at HO-1 (rat spleen) (setting [6]), the IC50 was 0.5 ± 0.3 µM.

`Cl.Clc1ccc(CC[C@@]2(Cn3ccnc3)OC[C@@H](CSc3ccc4ccccc4c3)O2)cc1` [QC-121, (2R,4S)-1-[2-[2-(4-Chlorophenyl)ethyl]-4-(naphthalen-2-ylsulfanylmethyl)-[1,3]dioxolan-2-ylmethyl]-1H-imidazole hydrochloride] displayed a melting point of 156 to 157 °C.

For `Cl.Clc1ccc(CC[C@@]2(Cn3ccnc3)OC[C@@H](COc3ccc(-c4ccccc4)cc3)O2)cc1` [QC-129], the melting point was 162 to 163 °C.

In the case of `CCC1=C(C)c2cc3[n-]c(cc4[n-]c(cc5nc(cc1n2)C(C)=C5CC)c(C)c4CCC(=O)O)c(CCC(=O)O)c3C.[Cl-].[Cl-].[Sn+4]` [SnMP], the “mitochondrial iron accumulation in astroglia transfected with human ho-1 gene” value with cultured rat astroglia is reported as “abolished the pathological accumulation of mitochondrial ^55Fe”.

On to `CC(=O)O[C@H]1C(=O)[C@@]2(C)[C@H]([C@H](OC(=O)c3ccccc3)[C@]3(O)C[C@H](OC(=O)[C@H](O)[C@@H](NC(=O)c4ccccc4)c4ccccc4)C(C)=C1C3(C)C)[C@]1(OC(C)=O)CO[C@@H]1C[C@@H]2O` [Taxol™, paclitaxel, reference compound], for which the “toxicity in the combination study” value in series [3] is “induced some loss of body weights/mortality”. In series [4], the “HO-1 expression and activity” value was “dose and time dependent increase in HO-1 expression and activity”.

As to `N.N.[Cl][Pt][Cl]` [cisplatin, cis-diaminedichloroplatinum(II), reference compound], the “macroscopic nodules in the lungs (average)” value in [5] amounted to 60 nodules.

With `C[C@@H]1C[C@H]2[C@@H]3CCC4=CC(=O)C=C[C@]4(C)[C@@]3(F)[C@@H](O)C[C@]2(C)[C@@]1(O)C(=O)CO` [dexamethasone], in the series on cultured rat astroglia (dexamethasone 50 μg/mL), the “mitochondrial iron sequestration in astrocytes exposed to β-amyloid, TNFα or IL-1β” value is reported as “significantly attenuated mitochondrial iron sequestration”. Besides, the “mitochondrial iron accumulation in astroglia transfected with human ho-1 gene” value with cultured rat astroglia is reported as “abolished the pathological accumulation of mitochondrial ^55Fe”.
